Assay results as given in PubChem BioAssay AID330 (DTP/NCI, 2004).
“And” between values parts separate entries of the source, which are not always exact repeats. Equal values may be shown once. Toxic doses and inconclusive results are not listed. Rule for the calls: active = survival T/C of 150% or more; inactive = T/C below 125% in these data.

Tested on: P388 leukemia ip, CD2F1 mice, survival T/C
Experiment: NCI In Vivo Anticancer Drug Screen. Data for tumor model P388 Leukemia (intraperitoneal) in CD2F1 (CDF1) mice
Conditions: endpoint: median survival time, higher = longer survival
How it was run: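 Mice carrying the transplanted tumor received test compound or vehicle. Survival was recorded in each group, and the value is the treated-group measurement divided by that of the vehicle-treated control group.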

[1] = dose: 50.0 mg/kg/injection, schedule: Q01DX005 (ip), vehicle: saline with Tween-80
[2] = dose: 100.0 mg/kg/injection, schedule: Q01DX005 (ip), vehicle: saline with Tween-80
[3] = dose: 100.0 mg/kg/injection, schedule: Q01DX001 (ip), vehicle: saline with Tween-80
[4] = dose: 50.0 mg/kg/injection, schedule: Q01DX009 (ip), vehicle: saline
[5] = dose: 100.0 mg/kg/injection, schedule: Q01DX009 (ip), vehicle: saline
[6] = dose: 200.0 mg/kg/injection, schedule: Q01DX009 (ip), vehicle: saline
[7] = dose: 50.0 mg/kg/injection, schedule: Q01DX009 (ip), vehicle: saline with Tween-80
[8] = dose: 100.0 mg/kg/injection, schedule: Q01DX009 (ip), vehicle: saline with Tween-80
[9] = dose: 200.0 mg/kg/injection, schedule: Q01DX009 (ip), vehicle: saline with Tween-80
[10] = dose: 180.0 mg/kg/injection, schedule: Q01DX009 (ip), vehicle: saline with Tween-80
[11] = dose: 200.0 mg/kg/injection, schedule: Q01DX001 (ip), vehicle: saline with Tween-80
[12] = dose: 100.0 mg/kg/injection, schedule: Q04DX003 (ip), vehicle: saline with Tween-80
[13] = dose: 200.0 mg/kg/injection, schedule: Q04DX003 (ip), vehicle: saline with Tween-80
[14] = dose: 50.0 mg/kg/injection, schedule: Q01DX005 (ip), vehicle: Klucel (hydroxypropylcellulose) (HPC)
[15] = dose: 100.0 mg/kg/injection, schedule: Q01DX005 (ip), vehicle: Klucel (hydroxypropylcellulose) (HPC)
[16] = dose: 200.0 mg/kg/injection, schedule: Q01DX005 (ip), vehicle: Klucel (hydroxypropylcellulose) (HPC)

Measured: T/C

Cc1cc(NC(=S)SCc2ccc(Cl)cc2)ccc1Cl
inactive: dose: 50.0 mg/kg/injection, schedule: Q01DX009 (ip), vehicle: Klucel (hydroxypropylcellulose) (HPC) 103 % of control and 118 % of control | dose: 50.0 mg/kg/injection, schedule: Q01DX009 (ip), vehicle: suspension in saline 97 % of control | dose: 100.0 mg/kg/injection, schedule: Q01DX009 (ip), vehicle: suspension in saline 92 % of control | dose: 200.0 mg/kg/injection, schedule: Q01DX009 (ip), vehicle: suspension in saline 96 % of control

Cc1ccc(S(=O)(=O)OC2COC(OCc3ccccc3)C(OS(=O)(=O)c3ccc(C)cc3)C2O)cc1 (configuration not stated)
inactive: [1] 100 % of control | [2] 86 % of control

Cc1cnc2ncn(Cc3c[nH]c(=O)[nH]c3=O)c(=O)c2c1
inactive: dose: 12.5 mg/kg/injection, schedule: Q01DX001 (ip), vehicle: saline with Tween-80 110 % of control | dose: 25.0 mg/kg/injection, schedule: Q01DX001 (ip), vehicle: saline with Tween-80 107 % of control | dose: 50.0 mg/kg/injection, schedule: Q01DX001 (ip), vehicle: saline with Tween-80 104 % of control | [3] 104 % of control

ClCc1nnn(Cc2ccccc2)c1CCl
inactive: [4] 102 % of control | [5] 89 % of control | [6] 92 % of control

CC12CCC(O1)C1C(=O)NC(=O)C12 (configuration not stated)
inactive: dose: 50.0 mg/kg/injection, schedule: Q01DX005 (ip), vehicle: saline 102 % of control | dose: 100.0 mg/kg/injection, schedule: Q01DX005 (ip), vehicle: saline 108 % of control | dose: 200.0 mg/kg/injection, schedule: Q01DX005 (ip), vehicle: saline 100 % of control

COc1cc(N=Nc2ccccc2)cc(/C=N\NC(=S)Nc2cccc(C)c2)c1O
inactive: [1] 87 % of control

Oc1ccccc1C=NCc1ccccc1
inactive: dose: 25.0 mg/kg/injection, schedule: Q01DX009 (ip), vehicle: saline with Tween-80 107 % of control | [7] 119 % of control | [8] 114 % of control | [9] 114 % of control

C[CH2][Ge]([CH2]C)[CH2]C.C[CH2][Ge]([Cl])[CH2]C
inactive: [4] 100 % of control | [5] 100 % of control | [6] 91 % of control

Cc1cc2nc3c(=O)[nH]c(=O)nc-3n(CC=O)c2cc1C
inactive: dose: 16.0 mg/kg/injection, schedule: Q01DX009 (ip), vehicle: saline with Tween-80 92 % of control | dose: 32.0 mg/kg/injection, schedule: Q01DX009 (ip), vehicle: saline with Tween-80 91 % of control | dose: 64.0 mg/kg/injection, schedule: Q01DX009 (ip), vehicle: saline with Tween-80 90 % of control | dose: 128.0 mg/kg/injection, schedule: Q01DX009 (ip), vehicle: saline with Tween-80 90 % of control | dose: 135.0 mg/kg/injection, schedule: Q01DX009 (ip), vehicle: saline with Tween-80 104 % of control | [10] 104 % of control | dose: 240.0 mg/kg/injection, schedule: Q01DX009 (ip), vehicle: saline with Tween-80 104 % of control | dose: 256.0 mg/kg/injection, schedule: Q01DX009 (ip), vehicle: saline with Tween-80 102 % of control | dose: 320.0 mg/kg/injection, schedule: Q01DX009 (ip), vehicle: saline with Tween-80 102 % of control

Cc1nc2sccn2c1C(N)=O
inactive: dose: 60.0 mg/kg/injection, schedule: Q01DX005 (ip), vehicle: Klucel (hydroxypropylcellulose) (HPC) 94 % of control | [3] 103 % of control | dose: 120.0 mg/kg/injection, schedule: Q01DX005 (ip), vehicle: Klucel (hydroxypropylcellulose) (HPC) 97 % of control | [11] 114 % of control | dose: 400.0 mg/kg/injection, schedule: Q01DX001 (ip), vehicle: saline with Tween-80 103 % of control

CCc1cc2c(c3c1C(=O)CC3)C(C)(C)CCC2
inactive: dose: 50.0 mg/kg/injection, schedule: Q01DX005 (ip), vehicle: saline + Tween-80 + alcohol 106 % of control | dose: 100.0 mg/kg/injection, schedule: Q01DX005 (ip), vehicle: saline + Tween-80 + alcohol 92 % of control | dose: 200.0 mg/kg/injection, schedule: Q01DX005 (ip), vehicle: saline + Tween-80 + alcohol 97 % of control

O=S1(=O)c2ccccc2N(c2ccccc2)c2nnc(COc3ccccc3)n21
inactive: [1] 90 % of control | [2] 88 % of control

NC(=S)NC1OC(COC(=O)c2ccccc2)C(OC(=O)c2ccccc2)C1OC(=O)c1ccccc1 (configuration not stated)
inactive: dose: 25.0 mg/kg/injection, schedule: Q04DX003 (ip), vehicle: saline with Tween-80 98 % of control | dose: 50.0 mg/kg/injection, schedule: Q04DX003 (ip), vehicle: saline with Tween-80 107 % of control | [12] 100 % of control | [13] 106 % of control

NCc1c(O)ccc2ccccc12
inactive: [7] 105 % of control | [8] 107 % of control | [9] 108 % of control

Cc1coc2c1CC1OC1(C)CCC1OC1(C)C2 (configuration not stated)
inactive: dose: 12.5 mg/kg/injection, schedule: Q01DX005 (ip), vehicle: Klucel + Tween-80 96 % of control | dose: 25.0 mg/kg/injection, schedule: Q01DX005 (ip), vehicle: Klucel + Tween-80 98 % of control | dose: 50.0 mg/kg/injection, schedule: Q01DX005 (ip), vehicle: Klucel + Tween-80 99 % of control | dose: 100.0 mg/kg/injection, schedule: Q01DX005 (ip), vehicle: Klucel + Tween-80 106 % of control

O=C(CCl)N/N=C(\c1ccccc1)c1ccc(Br)cc1
inactive: dose: 45.0 mg/kg/injection, schedule: Q01DX009 (ip), vehicle: saline with Tween-80 103 % of control | dose: 90.0 mg/kg/injection, schedule: Q01DX009 (ip), vehicle: saline with Tween-80 98 % of control | [10] 97 % of control

NCCn1[nH]c(=O)c2cccnc2c1=O
inactive: dose: 100.0 mg/kg/injection, schedule: Q04DX002 (ip), vehicle: saline with Tween-80 100 % of control | dose: 200.0 mg/kg/injection, schedule: Q04DX002 (ip), vehicle: saline with Tween-80 95 % of control | dose: 400.0 mg/kg/injection, schedule: Q04DX002 (ip), vehicle: saline with Tween-80 101 % of control

NC(N)=N/N=C1\C(=O)N(c2cccc([N+](=O)[O-])c2)C(=O)C1C(=O)Nc1cccc([N+](=O)[O-])c1 (configuration not stated)
inactive: [3] 102 % of control | [11] 100 % of control

COc1ccc(C(O)C2c3c(cc4c(c3OC)OCO4)CCN2C)c(CO)c1OC (configuration not stated)
inactive: dose: 12.5 mg/kg/injection, schedule: Q01DX001 (ip), vehicle: Klucel (hydroxypropylcellulose) (HPC) 88 % of control | dose: 25.0 mg/kg/injection, schedule: Q01DX001 (ip), vehicle: Klucel (hydroxypropylcellulose) (HPC) 88 % of control | dose: 50.0 mg/kg/injection, schedule: Q01DX001 (ip), vehicle: Klucel (hydroxypropylcellulose) (HPC) 94 % of control

Cc1ccc2nc(-c3ccc(CSC(=N)N)cc3)oc(=O)c2c1
inactive: [7] 93 % of control | [8] 89 % of control

O=C1c2ccccc2C(=O)c2c(NCCC3CCCN4CCCCC34)cccc21 (configuration not stated)
inactive: [14] 94 % of control | [15] 97 % of control | [16] 96 % of control

COc1cc2cc(c1Cl)N(C)C(=O)/C=C/C1(C)OC1C(C)C1CC(O)(NC(=O)O1)C(OC)/C=C/C=C(\C)C2OC (configuration not stated)
inactive: dose: 4.0 micrograms/kg/injection, schedule: Q01DX009 (ip), vehicle: distilled water + alcohol 103 % of control | dose: 8.0 micrograms/kg/injection, schedule: Q01DX009 (ip), vehicle: distilled water + alcohol 100 % of control | dose: 64.0 micrograms/kg/injection, schedule: Q01DX009 (ip), vehicle: distilled water + alcohol 99 % of control | dose: 128.0 micrograms/kg/injection, schedule: Q01DX009 (ip), vehicle: distilled water + alcohol 91 % of control

Cc1[nH]c(=O)[nH]c(=O)c1/C=C/C(=O)NC(CO)CSC(C)C (configuration not stated)
inactive: dose: 50.0 mg/kg/injection, schedule: Q01DX009 (ip), vehicle: other 86 % of control | dose: 200.0 mg/kg/injection, schedule: Q01DX009 (ip), vehicle: other 90 % of control | dose: 400.0 mg/kg/injection, schedule: Q01DX009 (ip), vehicle: other 89 % of control

CCC(C)(C)N=C(NC(=O)C(F)(F)F)Nc1cccnc1
inactive: [12] 93 % of control | [13] 94 % of control

C=C(c1ccc(OC)c(OC)c1)c1nccc2cc(OC)c(OC)cc12
inactive: [14] 98 % of control | [15] 96 % of control | [16] 100 % of control
